Data taken from patent publication US20260241043A1, “Carrier Peptide Fragment and Use Thereof” (TOAGOSEI CO., LTD., priority 2022, published 2026).
Primed or numbered codes have the meaning given here. FAM″ = C-terminal FAM dye

test system: NSC-34 cells; experiment: Evaluation on cell membrane permeability by flow cytometry; format: cell-based, mouse; conditions: 10 μM additive, 0.5% DMSO, 20 hours incubation at 37° C., fluorescence detector FL2
Method: As the eukaryotic cells, NSC-34 cells (mouse motor neuron-like hybrid cell line) were used and the cell membrane permeability of the constructs 1 to 3 was analyzed. In Examples 1 to 3, the prepared samples 1 to 3 were used, respectively, and in Example 4, a FAM solution was used.
The NSC-34 cells were cultured in 10% fetal bovine serum (FBS)-containing Dulbecco's modified Eagle's medium (DMEM (Cat No. 044-29765, manufactured by FUJIFILM Wako Pure Chemical Corporation)), which is a normal culture medium.
The NSC-34 cells that adhered to a culture plate were cleaned with PBS and then, a 0.25%-trypsin/EDTA solution was added thereto, and incubation was performed for three minutes at 37° C. After the incubation, the aforementioned 10% FBS-containing DMEM was added to deactivate trypsin and then, five-minute centrifugal separation was performed at 150×g to precipitate the cells. After the supernatant generated by the centrifugal separation was removed, the 10% FBS-containing DMEM was added to the precipitate (cell pellet) to prepare a cell suspension of about 2× 10^5 cells/mL. The cell suspension was added by 1 mL to a well of a commercially available six-hole (well) plate (manufactured by AGC TECHNO GLASS Co., Ltd.) so as to seed the cell (about 2× 10^5 cells/well). In addition, the 2 mM sample solution 1 was diluted with the 10% FBS-containing DMEM to prepare the sample solution 1 in which the concentration of the sample 1 was 20 μM. […]
Regarding the obtained cells (cell pellet), the cell membrane permeability of the sample 1 was analyzed using a flow cytometer. […]
Using the aforementioned flow cytometer, gating based on forward scatter (FSC) and side scatter (SSC) was performed to set a gate about a cell group to be analyzed, and the fluorescence intensity was measured about the cell group in this gate. […] The fluorescence intensity was measured using a fluorescence detector FL2 of the flow cytometer (optimum detection wavelength around 543 nm) capable of detecting the fluorescence wavelength of FAM. […]

Compared with “Ac-RKKRNSKRLTRKK-FAM (Ac-RKKRNSKRLTRKK-{FAM″}) [Example 1, N-terminally acetylated peptide 1 (all L-form) with FAM fluorescent dye bonded to the C-terminus]”, Ac-RkkRNSkRLTRkk-FAM [Example 3] is higher in “MFI (median fluorescence intensity)” value: 14.6 for the first, 27.3 for the second.

In the case of Ac-rKKrNSKrLTrKK-FAM [Example 2], the “MFI (median fluorescence intensity)” value is reported as 37.7.
